The source of these data is patent publication US20040044000A1, “Isoquinoline derivatives as matrix metalloproteinase inhibitors” (priority 2002, published 2004).

Bounds are passed on as bounds.

What all share (type): biochemical
For assay [1], the target named is MMP-14 catalytic domain (MMP-14CD) (Homo sapiens, UniProt P50281). Description: Inhibition of MMP-14 catalytic domain (thiopeptolide substrate hydrolysis). The text has this: (§1) The assays measure the amount by which a test compound reduces the hydrolysis of a thiopeptolide substrate catalyzed by a matrix metalloproteinase enzyme. Such assays are described in detail by Ye et al., in Biochemistry, 1992;31(45):11231-11235, which is incorporated herein by reference. One such assay is described below in Biological Method 1.
(§2) Thiopeptolide substrates show virtually no decomposition or hydrolysis at or below neutral pH in the absence of a matrix metalloproteinase enzyme. A typical thiopeptolide substrate commonly utilized for assays is Ac-Pro-Leu-Gly-thioester-Leu-Leu-Gly-OEt. A 100 μL assay mixture will contain 50 mM of N-2-hydroxyethylpiperazine-N′-2-ethanesulfonic acid buffer (“HEPES,” pH 7.0), 10 mM CaCl2, 100 μM thiopeptolide substrate, and 1 mM 5,5′-dithio-bis-(2-nitro-benzoic acid) (DTNB). The thiopeptolide substrate concentration may be varied, for example from 10 to 800 μM to obtain Km and Kcat values. The change in absorbance at 405 nm is monitored on a Thermo Max microplate reader (molecular Devices, Menlo Park, Calif.) at room temperature (22° C.). The calculation of the amount of hydrolysis of the thiopeptolide substrate is based on E412=13600 M^−1 cm^−1 for the DTNB-derived product 3-carboxy-4-nitrothiophenoxide. Assays are carried out with and without matrix metalloproteinase inhibitor compounds, and the amount of hydrolysis is compared for a determination of inhibitory activity of the test compounds.
(§3) Test compounds were evaluated at various concentrations in order to determine their respective IC50 values, the micromolar concentration of compound required to cause a 50% inhibition of catalytic activity of the respective enzyme.
(§4) The test described above for the inhibition of MMP-13 may also be adapted and used to determine the ability of the compounds of Formula I to inhibit the matrix metalloproteases MMP-1, MMP-2, MMP-3, MMP-7, MMP-9, MMP-12 and MMP-14.

Assay [2] deals with T1, MMP-12 catalytic domain (MMP-12CD) (Homo sapiens, UniProt P39900).
T1 construct: MMP-3 catalytic domain, MMP-12 catalytic domain, MMP-14 catalytic domain, and MMP-17 catalytic domain
In words: Inhibition of MMP-12 catalytic domain (thiopeptolide substrate hydrolysis).
Excerpt: as §1, §2, §3, §4

Assay [3] has as its target T2, MMP-13 catalytic domain (MMP-13CD) (Homo sapiens, UniProt P45452).
T2 construct: use the catalytic domain of the MMP-13 enzyme, namely matrix metalloproteinase-13 catalytic domain (“MMP-13CD”), rather than the corresponding full-length enzyme
Description: Inhibition of MMP-13 catalytic domain (thiopeptolide substrate hydrolysis). To be noted: Biological Table 1; read-out: MMP-13CD IC50. The method, boiled down:
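Catalytic domain of MMP-13 (MMP-13CD) with 100 μM Ac-Pro-Leu-Gly-thioester-Leu-Leu-Gly-OEt in 50 mM HEPES pH 7.0, 10 mM CaCl2, 1 mM DTNB at 22° C. Hydrolysis followed by absorbance at 405 nm; IC50 (μM) from multiple compound concentrations.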

Assay [4] concerns the target T3, MMP-17 catalytic domain (MMP-17CD) (Homo sapiens, UniProt Q9ULZ9).
T3 construct: MMP-3 catalytic domain, MMP-12 catalytic domain, MMP-14 catalytic domain, and MMP-17 catalytic domain
T3 sequence (Q9ULZ9 126-295 limits assumed): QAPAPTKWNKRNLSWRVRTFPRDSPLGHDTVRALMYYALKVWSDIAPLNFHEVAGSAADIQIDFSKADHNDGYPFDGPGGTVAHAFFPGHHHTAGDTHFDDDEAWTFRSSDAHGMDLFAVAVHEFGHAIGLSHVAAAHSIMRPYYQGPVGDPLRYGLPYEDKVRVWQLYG
In words: Inhibition of MMP-17 catalytic domain (thiopeptolide substrate hydrolysis).
Excerpt: as §1, §2, §3

Assay [5] addresses MMP-3 catalytic domain (MMP-3CD) (Homo sapiens, UniProt P08254). Description: Inhibition of MMP-3 catalytic domain (thiopeptolide substrate hydrolysis, MES pH 6.0).
Excerpt: as §1, §2, §3
It should be appreciated that the assay buffer used with MMP-3CD was 50 mM N-morpholinoethane sulfonate (“MES”) at pH 6.0 rather than the HEPES buffer at pH 7.0 described above.

One may read the IC50 as the concentration that inhibits the measured activity by half.

T1 sequence (P39900 106-263 limits assumed, species assumed): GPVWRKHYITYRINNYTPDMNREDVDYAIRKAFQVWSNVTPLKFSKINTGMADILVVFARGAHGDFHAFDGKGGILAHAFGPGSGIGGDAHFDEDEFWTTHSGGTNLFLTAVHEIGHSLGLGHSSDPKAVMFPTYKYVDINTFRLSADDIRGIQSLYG
Sequence of MMP-3 catalytic domain (MMP-3CD) (P08254 100-272 limits assumed, species assumed): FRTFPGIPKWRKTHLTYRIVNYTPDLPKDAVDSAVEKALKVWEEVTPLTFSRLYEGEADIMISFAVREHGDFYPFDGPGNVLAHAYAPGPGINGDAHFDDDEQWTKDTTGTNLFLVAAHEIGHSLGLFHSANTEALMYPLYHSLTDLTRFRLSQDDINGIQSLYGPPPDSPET

In the case of `COc1cc(CNC(=O)c2ccc3ccn(Cc4ccc(S(C)(=O)=O)cc4)c(=O)c3c2)ccn1` [Example 51, 2-(4-methane-sulfonylbenzyl)-1-oxo-1,2-dihydro-isoquinoline-7-carboxylic Acid (2-methoxypyridin-4-ylmethyl)amide], the IC50 in assay [1] was above 100 µM; in assay [2], above 30 µM; in assay [3], 0.68 µM; in assay [4] it was above 100 µM; in assay [5], above 100 µM.
Turning to `COc1cc(CNC(=O)c2ccc3ccn(Cc4ccc(C(=O)O)cc4)c(=O)c3c2)ccn1` [Example 27, 4-{7-[(2-methoxypyridin-4-ylmethyl)carbamoyl]-1-oxo-1H-isoquinolin-2-ylmethyl}benzoic acid], the IC50 was above 100 µM in assay [1]; above 100 µM in assay [2]; 0.036 µM in assay [3]; 74 µM in assay [4]; above 100 µM in assay [5].
Take `O=C(O)c1ccc(Cn2ccc3ccc(C(=O)NCc4ccncc4)cc3c2=O)cc1` [Example 29, 4-{1-oxo-7-[(pyridin-4-ylmethyl)carbamoyl]-1H-isoquinolin-2-ylmethyl}benzoic Acid]: the IC50 in assay [1] was above 100 µM; in assay [2], above 100 µM; in assay [3], 0.19 µM; in assay [4] it was above 100 µM; in assay [5], above 100 µM.
Regarding `Cc1ccc(CNC(=O)c2ccc3ccn(Cc4ccc(-c5nn[nH]n5)cc4)c(=O)c3c2)cc1` [Example 60, 1-oxo-2-[4-(2H-tetrazol-5-yl)benzyl]-1,2-dihydroisoquinoline-7-carboxylic Acid 4-methyl-benzylamide], the IC50 in assay [1] was above 100 µM; in assay [2], 22 µM; in assay [3] it was 0.22 µM; in assay [4], above 100 µM; in assay [5], 31 µM.
For the molecule `CSc1ccc(CNC(=O)c2ccc3ccn(Cc4ccc(-c5nn[nH]n5)cc4)c(=O)c3c2)cc1` [Example 61, 1-oxo-2-[4-(2H-tetrazol-5-yl)benzyl]-1,2-dihydroisoquinoline-7-carboxylic Acid 4-methyl-sulfanylbenzylamide], the IC50 in assay [1] was above 10 µM; in assay [2] it was 5 µM; in assay [3], 0.032 µM; in assay [4], above 10 µM; in assay [5], 12 µM.
For `O=C1CC(NC(=O)c2ccc(Cn3ccc4ccc(C#CCc5ccccc5)cc4c3=O)cc2)=NN1` [Example 22, N-(5-oxo-4,5-dihydro-1H-pyrazol-3-yl)-4-[1-oxo-7-(3-phenylprop-1-ynyl)-1H-isoquinolin-2-ylmethyl]benzamide], the IC50 was 16 µM in assay [1]; above 100 µM in assay [2]; 0.019 µM in assay [3]; 14 µM in assay [4]; 4.1 µM in assay [5].
On the same counts, the results for `COc1cc(CNC(=O)c2ccc3ccn(Cc4ccc(-c5nn[nH]n5)cc4)c(=O)c3c2)ccc1O` [Example 65, 1-oxo-2-[4-(2H-tetrazol-5-yl)benzyl]-1,2-dihydroisoquinoline-7-carboxylic Acid 4-hydroxy-3-methoxy-benzylamide] are above 100 µM, above 10 µM, 0.091 µM, above 30 µM and above 100 µM.
For `O=c1c2cc(C#CCc3ccccc3)ccc2ccn1Cc1ccc(-c2nn[nH]n2)cc1` [Example 18, 7-(3-phenylprop-1-ynyl)-2-[4-(2H-tetrazol-5-yl)benzyl]-2H-isoquinolin-1-one], the IC50 in assay [1] was above 30 µM; in assay [2], above 30 µM; in assay [3] it was 0.0029 µM; in assay [4] it was above 30 µM; in assay [5], 4 µM.
